Test results as given in patent US6166000A, “Methods for preparation and use of 1α,24(S)-Dihydroxy vitamin . D.sub2” (priority 1995, dated 2000).

Legend:
vitamin D receptor (VDR) = target: T1, vitamin D receptor (VDR) (Homo sapiens, UniProt P11473); assay: Vitamin D-dependent transcriptional activation: growth hormone production in COS-1 cells co-transfected with VDR plasmid and VDRE-GH plasmid; assay type: cell-based; settings: in words
T1 sequence (P11473 1-427): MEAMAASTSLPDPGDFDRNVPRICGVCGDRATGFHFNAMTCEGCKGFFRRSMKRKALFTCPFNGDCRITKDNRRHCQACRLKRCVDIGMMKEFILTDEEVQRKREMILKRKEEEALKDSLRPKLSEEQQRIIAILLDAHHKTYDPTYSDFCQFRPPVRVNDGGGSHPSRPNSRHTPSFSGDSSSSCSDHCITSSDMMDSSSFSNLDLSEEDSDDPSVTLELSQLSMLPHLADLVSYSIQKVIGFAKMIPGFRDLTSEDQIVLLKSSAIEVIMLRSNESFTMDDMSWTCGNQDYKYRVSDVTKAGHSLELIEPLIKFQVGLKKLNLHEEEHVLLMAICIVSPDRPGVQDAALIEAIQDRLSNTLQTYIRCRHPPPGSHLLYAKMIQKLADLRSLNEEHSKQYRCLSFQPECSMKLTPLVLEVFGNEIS
Method: The biological activity in vitro of chemically synthesized 1α,24(S)-(OH)2 D2 and 1α,24(R)-(OH)2 D2 was measured using a vitamin D-dependent transcriptional activation model system in which a vitamin D receptor (VDR)-expressing plasmid pSG5-hVDR1/3and a plasmid p(CT4)^4 TKGH containing a Growth Hormone (GH)-gene, under the control of a vitamin D-responsive element (VDRE) were co-transfected into Green monkey kidney, COS-1 cells. DNA's for these two vectors were supplied by Dr. Mark Haussler, Department of Biochemistry, University of Arizona, Tucson, Ariz.
Tranfected cells were incubated with vitamin D metabolites and growth hormone production was measured.

[1] = Blood metabolite levels in osteoporotic women administered 1α-OH-D2; assay type: in vivo; settings: one day after a single 2 μg dose of 1α-OH-D2; human females
Method: An increase in the production of 1α,24(S)-(OH)2 D2 relative to 1α,25-(OH)2 D2 has also been observed by the present inventors in human females who received 1α-OH-D2 as part of an investigation of that drug for the treatment of osteoporosis. Following either a single dose of 2 μg of 1α-OH-D2 or daily doses of 8 μg/day for one week, blood was collected and analyzed for the metabolites 1α,24(S)-(OH)2 D2 and 1α,25-(OH)2 D2. Lipid was extracted from the blood, and the metabolites were purified by HPLC using standard methods and quantified with the radioreceptor assay produced by Incstar (Stillwater, Minn.). One day after a single 2 μg dose, the level of 1α,24(S)-(OH)2 D2 was undetectable with the 1α,25-(OH)2 D2 level being approximately 11 pg/ml. In contrast, one day following the last dose of 8 μg, the level of 1α,24(S)-(OH)2 D2 averaged 9 pg/ml with the 1α,25-(OH)2 D2 level averaging 30 pg/ml.

[2] = test system: men and women with renal disease undergoing chronic hemodialysis; assay: Management of hypocalcemia and metabolic bone disease in chronic hemodialysis patients; assay type: in vivo, human; settings: greater than 3.0 μg/day, twelve months; double-isotope technique
Method: A twelve-month, double-blind, placebo-controlled clinical trial is conducted with thirty men and women with renal disease who are undergoing chronic hemodialysis. […] Efficacy is evaluated by pre- and post-treatment comparisons of the two patient groups with regard to (a) direct measurements of intestinal calcium absorption, (b) total body calcium retention, (c) radial and spinal bone mineral density, or (d) determinations of serum calcium. Safety is evaluated by regular monitoring of serum calcium.

Hep 3B cells = assay: Metabolite production in Hep 3B cells incubated with 1α-OH-D2; assay type: in vitro ADME, human; settings: Experiment 2, photodiode array spectrophotometry
Method: Substantially pure 1α-(OH)D2 was obtained from Bone Care International, Inc. of Madison, Wis. The 1α-(OH)D2 was cultured for 48 hours with cells derived from a human hepatoma, Hep 3B, in medium devoid of fetal calf serum using known methods in the art.
Lipid extracts of the combined medium and cells were generated by known methods in the art and were subjected to high pressure liquid chromatography (HPLC) on Zorbax-S1L developed with hexane/isopropanol/methanol (91:7:2). The putative 1α,24(?)-(OH)2 D2 metabolite eluted between the parent 1α-(OH)D2 and standard 1α,25-(OH)2 D2 (also obtained from Bone Care International, Inc. of Madison, Wis.). (As used herein, the term "1α,24(?)-(OH)2 D2 " is meant to indicate that the epimeric form has not been identified.) The 1α,24(?)-(OH)2 D2 was further purified by this HPLC system before the metabolite's identification was undertaken using mass spectrometry analysis.
Hep 3B cells were incubated with 1α-OH-D2, as described above, at final concentrations of 1, 10, or 100 nM (Experiment 1), and 1 or 10 μM (Experiment 2) and 1α,24(S)-(OH)2 D2 was extracted and purified. The 1α,24(S)-(OH)2 D2 and 1α,25-(OH)2 D2 metabolites were quantitated by recovered radiolabel (Experiment 1) or by photodiode array spectrophotometry (Experiment 2).

Human keratinocytes = assay: Epidermal cell differentiation and proliferation testing; assay type: cell-based; settings: 0.05 to 5 μg/ml
Method: Human keratinocytes are cultured according to known modifications of the system originally described by Rheinwald and Green (Cell, vol. 6, p. 331 (1975)). The 1α,24(S)-dihydroxy vitamin D2, dissolved in ethanol, is added to cells to yield a variety of concentrations between 0.05 and 5 μg/ml with the ethanol concentration not to exceed 0.5% v/v. Control cultures are supplemented with ethanol at a final concentration of 0.5% v/v.
Differentiation and proliferation of epidermal cells in culture is examined by:
1. quantitation of cornified envelopes;
2. quantitation of cell density of cells attached to disks;
3. monitoring transglutaminase activity; or
4. monitoring DNA synthesis by incorporation of ^3 H-thymidine.

[3] = test system: human cancer cell lines BCA-1 or ZR-75-1 (breast) and COL-1 (colon); assay: Antiproliferative activity in human cancer cell lines (thymidine incorporation); assay type: cell-based; settings: dose-response
Method: Dose-response studies are conducted with 1α,24(S)-(OH)2 D2 in a battery of human cancer cell lines. These cell lines include, but are not limited to, the following: BCA-1 or ZR-75-1 (breast) and COL-1 (colon), as described by Shieh, H. L. et al. Chem. Biol. Interact., vol. 81, pp. 35-55 (1982). In this study, appropriate solvents are used as negative controls.

- activity in the transcriptional activation system compared with 1α,24(R)-(OH)2 D2 (vitamin D receptor (VDR)): significantly more activity
- blood level of metabolite [1]: undetectable
- Rate of Production (Hep 3B cells; substrate 1α-OH-D2 1 μM): 4.9 pmol per 10^6 cells/day
- Rate of Production (Hep 3B cells; substrate 1α-OH-D2 10 μM): 59 pmol per 10^6 cells/day
Structure (SMILES): C=C1/C(=C\C=C2/CCC[C@]3(C)[C@@H]([C@H](C)/C=C/[C@@](C)(O)C(C)C)CC[C@@H]23)C[C@@H](O)C[C@@H]1O [1α,24(S)-(OH)2 D2, 1α,24(S)-dihydroxy Vitamin D2]
- intestinal calcium absorption [2]: significantly increases
- DNA synthesis (3H-thymidine incorporation) vs control cultures (Human keratinocytes): lower DNA synthesis
- cell density of attached cells vs control cultures (Human keratinocytes): fewer attached cells
- cornified envelopes vs control cultures (Human keratinocytes): more cornified envelopes
- transglutaminase activity vs control cultures (Human keratinocytes): higher transglutaminase activity
- antiproliferative activity (inhibition of thymidine incorporation) [3]: potent (and reversible) antiproliferative activity
